Source: the NIST ThermoML archive (doi:10.1016/j.jct.2012.08.030)
Numbers after ± are expanded uncertainties.

Key:
[1] = refractive index (Na D-line) (dimensionless); xn = mol fraction of the nth substance listed; conditions: 101.3 kPa, Liquid, Standard Abbe refractometry
[2] = xn = mol fraction of the nth substance listed; conditions: 101.3 kPa, Liquid; for speed of sound: Sing-around technique in a fixed-path interferometer; for mass density: Vibrating tube method

SMILES: CCCCn1cc[n+](C)c1.COS(=O)(=O)[O-] [1-butyl-3-methylimidazolium methyl sulfate] + CC(C)O
- refractive index ([1]; 298.15 K, x1 = 0.0482): 1.38886 ± 0.00033
- refractive index ([1]; 298.15 K, x1 = 0.0965): 1.40004 ± 0.00034
- refractive index ([1]; 298.15 K, x1 = 0.1938): 1.41819 ± 0.00037
- refractive index ([1]; 298.15 K, x1 = 0.2928): 1.43226 ± 0.0004
- refractive index ([1]; 298.15 K, x1 = 0.3902): 1.44304 ± 0.00043
- refractive index ([1]; 298.15 K, x1 = 0.496): 1.45252 ± 0.00047
- refractive index ([1]; 298.15 K, x1 = 0.5903): 1.45942 ± 0.0005
- refractive index ([1]; 298.15 K, x1 = 0.6902): 1.46547 ± 0.00054
- refractive index ([1]; 298.15 K, x1 = 0.7978): 1.47086 ± 0.00059
- refractive index ([1]; 298.15 K, x1 = 0.9531): 1.47709 ± 0.00065
- refractive index ([1]; 298.15 K, x1 = 1): 1.47824 ± 0.00068
- refractive index ([1]; 303.15 K, x1 = 0.0482): 1.38696 ± 0.00033
- refractive index ([1]; 303.15 K, x1 = 0.0965): 1.39831 ± 0.00034
- refractive index ([1]; 303.15 K, x1 = 0.1938): 1.41666 ± 0.00037
- refractive index ([1]; 303.15 K, x1 = 0.2928): 1.43067 ± 0.0004
- refractive index ([1]; 303.15 K, x1 = 0.3902): 1.44158 ± 0.00043
- refractive index ([1]; 303.15 K, x1 = 0.496): 1.45108 ± 0.00047
- refractive index ([1]; 303.15 K, x1 = 0.5903): 1.458 ± 0.0005
- refractive index ([1]; 303.15 K, x1 = 0.6902): 1.46409 ± 0.00054
- refractive index ([1]; 303.15 K, x1 = 0.7978): 1.46948 ± 0.00059
- refractive index ([1]; 303.15 K, x1 = 0.9531): 1.47576 ± 0.00065
- refractive index ([1]; 303.15 K, x1 = 1): 1.47704 ± 0.00068
- refractive index ([1]; 308.15 K, x1 = 0.0482): 1.38495 ± 0.00033
- refractive index ([1]; 308.15 K, x1 = 0.0965): 1.39643 ± 0.00034
- refractive index ([1]; 308.15 K, x1 = 0.1938): 1.41492 ± 0.00037
- refractive index ([1]; 308.15 K, x1 = 0.2928): 1.42902 ± 0.0004
- refractive index ([1]; 308.15 K, x1 = 0.3902): 1.44001 ± 0.00043
- refractive index ([1]; 308.15 K, x1 = 0.496): 1.44958 ± 0.00047
- refractive index ([1]; 308.15 K, x1 = 0.5903): 1.45655 ± 0.0005
- refractive index ([1]; 308.15 K, x1 = 0.6902): 1.46268 ± 0.00054
- refractive index ([1]; 308.15 K, x1 = 0.7978): 1.4681 ± 0.00059
- refractive index ([1]; 308.15 K, x1 = 0.9531): 1.47442 ± 0.00065
- refractive index ([1]; 308.15 K, x1 = 1): 1.47577 ± 0.00068
- refractive index ([1]; 313.15 K, x1 = 0.0482): 1.38288 ± 0.00033
- refractive index ([1]; 313.15 K, x1 = 0.0965): 1.3945 ± 0.00034
- refractive index ([1]; 313.15 K, x1 = 0.1938): 1.41317 ± 0.00037
- refractive index ([1]; 313.15 K, x1 = 0.2928): 1.4274 ± 0.0004
- refractive index ([1]; 313.15 K, x1 = 0.3902): 1.43845 ± 0.00043
- refractive index ([1]; 313.15 K, x1 = 0.496): 1.44808 ± 0.00047
- refractive index ([1]; 313.15 K, x1 = 0.5903): 1.4551 ± 0.0005
- refractive index ([1]; 313.15 K, x1 = 0.6902): 1.46125 ± 0.00054
- refractive index ([1]; 313.15 K, x1 = 0.7978): 1.46674 ± 0.00059
- refractive index ([1]; 313.15 K, x1 = 0.9531): 1.47306 ± 0.00065
- refractive index ([1]; 313.15 K, x1 = 1): 1.47443 ± 0.00068
- speed of sound ([2]; 298.15 K, x1 = 0.0482): 1181.2 ± 0.87 m/s
- speed of sound ([2]; 298.15 K, x1 = 0.0965): 1219.7 ± 0.97 m/s
- speed of sound ([2]; 298.15 K, x1 = 0.1938): 1292.5 ± 1.2 m/s
- speed of sound ([2]; 298.15 K, x1 = 0.2928): 1358.2 ± 1.4 m/s
- speed of sound ([2]; 298.15 K, x1 = 0.3902): 1415 ± 1.6 m/s
- speed of sound ([2]; 298.15 K, x1 = 0.496): 1470.4 ± 1.9 m/s
- speed of sound ([2]; 298.15 K, x1 = 0.5903): 1514.7 ± 2.1 m/s
- speed of sound ([2]; 298.15 K, x1 = 0.6902): 1556.5 ± 2.4 m/s
- speed of sound ([2]; 298.15 K, x1 = 0.7978): 1596.4 ± 2.6 m/s
- speed of sound ([2]; 298.15 K, x1 = 0.9531): 1642.9 ± 3 m/s
- speed of sound ([2]; 298.15 K, x1 = 1): 1654.6 ± 3.1 m/s
- mass density ([2]; 298.15 K, x1 = 0.0482): 835.17 ± 0.25 kg/m3
- mass density ([2]; 298.15 K, x1 = 0.0965): 880.673 ± 0.23 kg/m3
- mass density ([2]; 298.15 K, x1 = 0.1938): 955.343 ± 0.26 kg/m3
- mass density ([2]; 298.15 K, x1 = 0.2928): 1013.5 ± 0.36 kg/m3
- mass density ([2]; 298.15 K, x1 = 0.3902): 1059.05 ± 0.55 kg/m3
- mass density ([2]; 298.15 K, x1 = 0.496): 1099.29 ± 0.81 kg/m3
- mass density ([2]; 298.15 K, x1 = 0.5903): 1128.61 ± 1.1 kg/m3
- mass density ([2]; 298.15 K, x1 = 0.6902): 1154.5 ± 1.4 kg/m3
- mass density ([2]; 298.15 K, x1 = 0.7978): 1177.96 ± 1.9 kg/m3
- mass density ([2]; 298.15 K, x1 = 0.9531): 1205.6 ± 2.6 kg/m3
- mass density ([2]; 298.15 K, x1 = 1): 1212.06 ± 2.8 kg/m3
- speed of sound ([2]; 303.15 K, x1 = 0.0482): 1165.3 ± 0.87 m/s
- speed of sound ([2]; 303.15 K, x1 = 0.0965): 1204.4 ± 0.97 m/s
- speed of sound ([2]; 303.15 K, x1 = 0.1938): 1278.2 ± 1.2 m/s
- speed of sound ([2]; 303.15 K, x1 = 0.2928): 1344.3 ± 1.4 m/s
- speed of sound ([2]; 303.15 K, x1 = 0.3902): 1401.7 ± 1.6 m/s
- speed of sound ([2]; 303.15 K, x1 = 0.496): 1457.6 ± 1.9 m/s
- speed of sound ([2]; 303.15 K, x1 = 0.5903): 1502.1 ± 2.1 m/s
- speed of sound ([2]; 303.15 K, x1 = 0.6902): 1544.2 ± 2.4 m/s
- speed of sound ([2]; 303.15 K, x1 = 0.7978): 1584.2 ± 2.6 m/s
- speed of sound ([2]; 303.15 K, x1 = 0.9531): 1630.7 ± 3 m/s
- speed of sound ([2]; 303.15 K, x1 = 1): 1642.2 ± 3.1 m/s
- mass density ([2]; 303.15 K, x1 = 0.0482): 831.096 ± 0.26 kg/m3
- mass density ([2]; 303.15 K, x1 = 0.0965): 876.702 ± 0.23 kg/m3
- mass density ([2]; 303.15 K, x1 = 0.1938): 951.52 ± 0.26 kg/m3
- mass density ([2]; 303.15 K, x1 = 0.2928): 1009.8 ± 0.36 kg/m3
- mass density ([2]; 303.15 K, x1 = 0.3902): 1055.42 ± 0.54 kg/m3
- mass density ([2]; 303.15 K, x1 = 0.496): 1095.74 ± 0.8 kg/m3
- mass density ([2]; 303.15 K, x1 = 0.5903): 1125.13 ± 1.1 kg/m3
- mass density ([2]; 303.15 K, x1 = 0.6902): 1151.05 ± 1.4 kg/m3
- mass density ([2]; 303.15 K, x1 = 0.7978): 1174.52 ± 1.8 kg/m3
- mass density ([2]; 303.15 K, x1 = 0.9531): 1202.22 ± 2.6 kg/m3
- mass density ([2]; 303.15 K, x1 = 1): 1208.7 ± 2.8 kg/m3
- speed of sound ([2]; 308.15 K, x1 = 0.0482): 1148.9 ± 0.87 m/s
- speed of sound ([2]; 308.15 K, x1 = 0.0965): 1188.9 ± 0.97 m/s
- speed of sound ([2]; 308.15 K, x1 = 0.1938): 1263.7 ± 1.2 m/s
- speed of sound ([2]; 308.15 K, x1 = 0.2928): 1330.4 ± 1.4 m/s
- speed of sound ([2]; 308.15 K, x1 = 0.3902): 1388.3 ± 1.6 m/s
- speed of sound ([2]; 308.15 K, x1 = 0.496): 1444.6 ± 1.9 m/s
- speed of sound ([2]; 308.15 K, x1 = 0.5903): 1489.5 ± 2.1 m/s
- speed of sound ([2]; 308.15 K, x1 = 0.6902): 1531.7 ± 2.4 m/s
- speed of sound ([2]; 308.15 K, x1 = 0.7978): 1571.9 ± 2.6 m/s
- speed of sound ([2]; 308.15 K, x1 = 0.9531): 1618.5 ± 3 m/s
- speed of sound ([2]; 308.15 K, x1 = 1): 1630 ± 3.1 m/s
- mass density ([2]; 308.15 K, x1 = 0.0482): 826.964 ± 0.26 kg/m3
- mass density ([2]; 308.15 K, x1 = 0.0965): 872.696 ± 0.23 kg/m3
- mass density ([2]; 308.15 K, x1 = 0.1938): 947.68 ± 0.26 kg/m3
- mass density ([2]; 308.15 K, x1 = 0.2928): 1006.09 ± 0.35 kg/m3
- mass density ([2]; 308.15 K, x1 = 0.3902): 1051.78 ± 0.54 kg/m3
- mass density ([2]; 308.15 K, x1 = 0.496): 1092.2 ± 0.8 kg/m3
- mass density ([2]; 308.15 K, x1 = 0.5903): 1121.71 ± 1.1 kg/m3
- mass density ([2]; 308.15 K, x1 = 0.6902): 1147.61 ± 1.4 kg/m3
- mass density ([2]; 308.15 K, x1 = 0.7978): 1171.15 ± 1.8 kg/m3
- mass density ([2]; 308.15 K, x1 = 0.9531): 1198.85 ± 2.6 kg/m3
- mass density ([2]; 308.15 K, x1 = 1): 1205.35 ± 2.8 kg/m3
- speed of sound ([2]; 313.15 K, x1 = 0.0482): 1132.5 ± 0.86 m/s
- speed of sound ([2]; 313.15 K, x1 = 0.0965): 1173.3 ± 0.96 m/s
- speed of sound ([2]; 313.15 K, x1 = 0.1938): 1249.1 ± 1.2 m/s
- speed of sound ([2]; 313.15 K, x1 = 0.2928): 1316.5 ± 1.4 m/s
- speed of sound ([2]; 313.15 K, x1 = 0.3902): 1375 ± 1.6 m/s
- speed of sound ([2]; 313.15 K, x1 = 0.496): 1431.8 ± 1.9 m/s
- speed of sound ([2]; 313.15 K, x1 = 0.5903): 1476.9 ± 2.1 m/s
- speed of sound ([2]; 313.15 K, x1 = 0.6902): 1519.4 ± 2.4 m/s
- speed of sound ([2]; 313.15 K, x1 = 0.7978): 1559.7 ± 2.6 m/s
- speed of sound ([2]; 313.15 K, x1 = 0.9531): 1606.4 ± 3 m/s
- speed of sound ([2]; 313.15 K, x1 = 1): 1617.9 ± 3.1 m/s
- mass density ([2]; 313.15 K, x1 = 0.0482): 822.774 ± 0.26 kg/m3
- mass density ([2]; 313.15 K, x1 = 0.0965): 868.646 ± 0.23 kg/m3
- mass density ([2]; 313.15 K, x1 = 0.1938): 943.827 ± 0.27 kg/m3
- mass density ([2]; 313.15 K, x1 = 0.2928): 1002.39 ± 0.35 kg/m3
- mass density ([2]; 313.15 K, x1 = 0.3902): 1048.13 ± 0.53 kg/m3
- mass density ([2]; 313.15 K, x1 = 0.496): 1088.68 ± 0.79 kg/m3
- mass density ([2]; 313.15 K, x1 = 0.5903): 1118.31 ± 1.1 kg/m3
- mass density ([2]; 313.15 K, x1 = 0.6902): 1144.23 ± 1.4 kg/m3
- mass density ([2]; 313.15 K, x1 = 0.7978): 1167.77 ± 1.8 kg/m3
- mass density ([2]; 313.15 K, x1 = 0.9531): 1195.49 ± 2.5 kg/m3
- mass density ([2]; 313.15 K, x1 = 1): 1202.01 ± 2.8 kg/m3
